Here are results for ten molecules from US6737237B1, “Antimicrobial agents, diagnostic reagents, and vaccines based on unique Apicomplexan parasite components” (Apicomplexan Therapeutics, LLC, priority 1999, dated 2004).

≈ marks a conversion by molar mass, not a printed value.

Broadly, the IC50 is the concentration needed to halve the response being measured. By IC90 is commonly meant the concentration at which the effect reaches the 90% level. A high value points to weaker potency.

The test system of series [1] is T. gondii tachyzoites (RH strain). The series can be described thus: microbe, parasite or virus in culture. It is filed as cell-based, Toxoplasma gondii. The procedure: The improvements are based on microscopic visual imspection of infected and inhibitor treated cultures, and on quantitation of nucleic acid synthesis of the parasite by measure intake of ^3H uracil onto the parasite's nucleic acid. Uracil is not utilized by mammalian cells. […] Only the RH strain tachyzoites, cultured for up to 72 hours, had been used in previously reported assays. The use of Me49, Ptg, and R5 mutant are unique aspects of the methods used in these assays in this invention.
(§1) In these assays toxicity of a candidate inhibitor was assessed by its ability to prevent growth of human foreskin fibroblasts (HFF) after 4 days and after 8 days as measured by tritiated thymidine uptake and microscopic evaluation. Confluent monolayers of HFF were infected with tachyzoites and bradyzoites. Inhibitor was added one hour later. Non-toxic doses were used in parasite growth inhibition assays. Parasite growth was measured by ability to incorporate tritiated uracil during the last 18 hours of culture.
(§2) First the toxicity of gabaculine was assessed by its ability to prevent growth of human foreskin fibroblasts (HFF) as measured by ^3H-thymidine uptake and microscopic evaluation. Non-toxic doses were used in parasite growth inhibition assays. in vitro parasite growth inhibition assays included confluent monolayers of HFF infected with tachyzoites (RH) or mutant Me49 (R5). Gabaculine was added 1 hour later. Parasite growth was measured by the ability to incorporate ^3H-uracil during the last 18 hours of culture. In addition, parasite growth was evaluated microscopically in Giemsa stained slides.
ii) in vitro Parasite Growth Inhibition Assays: Confluent monolayers of HFF cells, grown in 96-well plates are infected with T. gondii tachyzoites of the RH strain and serial dilutions of anti-microbial compound are applied 1 hour later. T. gondii growth is assessed in these cultures by their ability to incorporate tritiated uracil (2.5 μCi/well) added during the last 18 hours of culture. After harvesting cells with an automatic cell harvester, uracil incorporation is measured by liquid scintillation.

Another series has as its system C. parvum. The series can be described thus: C. parvum infection of MDBKF5D2 cell monolayers, immunofluorescence assay at 48 hours. It is filed as cell-based, Cryptosporidium parvum. The procedure: C. parvum oocysts at 50,000/well were incubated at 37° C. (8% CO2) on confluent MDBKF5D2 cell monolayers in 96 well microtiter plates with the following concentrations of each drug. […] The level of infection of each well was determined and analyzed by an immunofluorescence assay at 48 hours using an antibody to C. parvum sporozoites made in rabbits at a concentration of 0.1%. Fluorescein-conjugated goat anti-rabbit antibody was used at a concentration of 1%.
(8% carbon dioxide) on confluent MDBKF5D2 cell monolayers in 96 well microtiter plates. The level of infection of each well was determined and analyzed by an immunofluorescence assay at 48 hours using as an antibody C. parvum sporozoite rabbit anti-serum (0.1%), and using fluorescein-conjugated goat anti-rabbit antibody (1%). Data are expressed as mean parasite count/field when 16 fields counted at 10× magnification “s.d. of the mean” (FIG. 6).

The test system of series [2] is D6 clone of Plasmodium falciparum. The experiment in a line: P. falciparum in vitro assay (Milhous et al., 1985), D6 clone. The series is classed as cell-based. The following applies: D6, 66 h.
For the next series, the system named is Toxoplasma gondii ACC. The series can be described thus: ACC activity in T. gondii tachyzoite protein extracts (carboxyl incorporation from bicarbonate). The series is classed as biochemical. The source says:
In plants, genes encoding enzymes for fatty acid synthesis, including various subunits of ACC except one, are present in the nuclear genome and their protein products are imported and function in plastids. ACC, catalyzing the first committed step of de novo fatty acid biosynthesis, is a known selective target of aryloxyphenoxypropionate (“fops”) and cyclohexanedione (“dims”) herbicides in sensitive species. The molecular mechanism of inhibition/resistance of the enzyme is not know but there is a strong correlation between the enzyme structure and its origin. The high molecular weight multi-domain ACC that is localized in plastids of grasses is extremely sensitive to these herbicides. All of the multi-subunit chloroplast enzymes of dicot plants and bacteria as well as other multi-domain cytosolic ACCs, such as those from man, chicken, rat and yeast, are resistant. ACC activity is conveniently measured in vitro by the incorporation of the carboxyl group from bicarbonate into an acid-stable form using crude protein extracts after Sephadex G50 filtration. […] One band at 240 kDa corresponded to the expected size for a subunit of ACC, while another at 130 kDA corresponded to the size expected for pyruvate carboxylase (PC).
(§3) Structures of fops and dims were tested on the ACC-containing protein extracts of T. gondii described above. Three of the four fops were striking inhibitors of the activity, while none of the dims had any effect against the enzyme. […] Effects of the herbicides on uninfected fibroblasts and on T. gondii growth and replication were tested as previously described by Roberts et al., 1998 using incorporation of radiolabeled thymidine by growing fibroblasts to assess toxicity and incorporation of radiolabeled uracil to measure T. gondii growth and persistence. Anti-parasite activity and toxicity for four fops and one representative dim were determined. Pyrimethamine and sulfadiazine, antimicrobial agents which are known inhibitors of folate synthesis, were included as positive control. […] Consistent with the data for ACC activity in vitro, the inhibitory activity of the fops and the dim on T. gondii growth in fibroblasts was in the same concentration range. […] With regard to toxicity, fops are mildly toxic at the highest concentration, 400 μM. In separate experiments, the effect of Clodinafop on T. gondii was assessed by light microscopy. […] In this experiment, cultures were incubated for 2 more days without the inhibitor.

Series [3] has as its system T. gondii. The experiment in a line: Assay for synergy in vitro: inhibitors alone and together on replication of T. gondii (uracil CPM). The series is classed as cell-based, Toxoplasma gondii. Particulars: for CPM for B: Drug B alone: Sulfadiazine (6.25 μg/ml), Pyrimethamine (0.025 μg/ml), SHAM (0.78 μg/ml). The source says:
The effect of enzymes in pathways “in parallel” are additive and in “series” are more than the additive effect of either inhibitor used alone (i.e., synergistic). […] The shikimate pathway produces 3,4-dihdroxybenzoate which is converted to ubiquinone, an essential component of the electron transport chain. Thus, NPMG, an inhibitor of EPSP-synthase, indirectly affects ubiquinone production and, thus, the electron transport chain. Similarly, heme is required for production of cytochromes in the electron transport chain. Thus, inhibition of heme production by gabaculine also indirectly affects the conventional electron transport chain. […] T. gondii growth is measured by their ability to incorporate tritiated uracil and is expressed as counts/minute (CPM).
g) Assays for Synergy in vitro: This is an assy in which ≦50% inhibitor concentrations of two antimicrobial agents are added alone and together to determine whether there is an additive, synergistic or inhibitory interaction. All other aspects of this assay are as described herein.

In series [4] the test system is T. gondii. The experiment in a line: Effect of inhibitors on T. gondii infection in vivo (manifestations, parasitemia, brain cysts). Also on record: species or system mice. The following applies: mouse.
Protocol: Cyst numbers present in a suspension of brain are enumerated, or cyst numbers in formalin fixed paraffin embedded sections are quantitated.
c) Persistance of Cysts: C3H/He mice are infected orally with 100 cysts of T. gondii (Me49 strain). Inhibitors are administered to groups of mice from day 30 post infection to day 50 post infection. Cyst burden, mortality and pathology are compared in treated and control mice on days 30 and 50 post infection and in mice that receive antibody to gamma interferon which leads to recrudescence of disease.
A method to measure the amount of parasitemia in mouse peripheral blood has been developed. Briefly, the target for PCR amplification is the 35 fold repetitive B1 gene of T. gondii and the amplification was performed using primers previously reported. […] Competitive PCR was performed by spiking individual reactions (containing equal amounts of genomic DNA) with a dilution of the internal standard. Since this internal control contains the same primer template sequences, it competes with the B1 gene of T. gondii for primer binding and amplification. The sensitivity of the PCR reaction in each sample can be monitored. Following competitive PCR, the PCR products are distinguished by size and the amount of products generated by the target and internal standard can be compared on a gel. […]
In series [5] the test system is human foreskin fibroblasts (HFF). The experiment in a line: Toxicity: growth of fibroblasts, tritiated thymidine uptake and microscopic evaluation. It is filed as cell-based. Particulars: herbicide experiments. The procedure:
as §1, §2
d) Inhibitors: Inhibitor compounds are tested over a range of concentrations for toxicity against mammalian cells by assessing their ability to prevent cell growth as measured by tritiated thymidine uptake and inspection of the monolayer using microscopic evaluation. […]

A further series relates to Toxoplasma tachyzoites. The experiment in a line: Light microscopy of T. gondii infected fibroblasts treated with Clodinafop. Particulars: for parasites in infected fibroblasts: 4-day treatment, one change of medium and inhibitor after 2 days, then 2 more days without inhibitor; for number of T. gondii cells in infected fibroblasts: two days. It is filed as cell-based, Toxoplasma gondii. The procedure:
as §3

For `Oc1cccc2cccnc12` [8-OH-quinoline, 8-hydroxyquinoline], the “activity against T. gondii (tachyzoites)” value in series [1] was “effective”. Also, the “approximate 95% C1 count (mean parasite count per field)” value with C. parvum (8-OH-quinoline 0.1 μg/ml, media alone ~1800) was around 1300; in the series with C. parvum (8-OH-quinoline 1 μg/ml, media alone ~1800) it was around 1100; in the series on C. parvum (8-OH-quinoline 10 μg/ml, media alone ~1800) it was around 900; in the series on C. parvum (8-OH-quinoline 100 μg/ml, media alone ~1800) it was around 300. This molecule registered an IC50 in series [2] of 1.2 µg/mL (≈ 8.29 µM). The molecule further showed an IC90 in series [2] of 1.88 µg/mL (≈ 13 µM).
In the case of `CC(Oc1ccc(Oc2ncc(C(F)(F)F)cc2Cl)cc1)C(=O)O` (centres unmarked) [Haloxyfop], the “inhibition of ACC activity” value amounted to 50% with Toxoplasma gondii ACC (20 μM) and 90% in the series on Toxoplasma gondii ACC (100 μM).
As for `CC1(C)N=C(N)N=C(N)N1c1ccc(Cl)cc1` [Cycloguanil], the “combined effect of two inhibitors in vitro (additive or synergistic)” value in the series with T. gondii [3] (T. gondii in culture) was “synergistic with NPMG”.
As for `NC[C@@H]1O[C@H](O[C@H]2[C@@H](O)[C@H](O[C@@H]3[C@@H](O)[C@H](N)C[C@H](N)[C@H]3O[C@H]3O[C@H](CO)[C@@H](O)[C@H](O)[C@H]3N)O[C@@H]2CO)[C@H](N)[C@@H](O)[C@@H]1O` [paromomycin], the “approximate 95% C1 count (mean parasite count per field)” value in the series with C. parvum (PRM without ethanol, media alone ~1800) is reported as around 200; with C. parvum (paromomycin (PRM) and ethanol, media and ethanol ~1200), around 100.
For `CC(Oc1ccc(Oc2ccc(C(F)(F)F)cn2)cc1)C(=O)O` (centres unmarked) [Fluazifop], the “effect on T. gondii ACC activity in crude extracts” value with Toxoplasma gondii ACC is on record as “relatively low inhibitory activity”.
With `CCc1nc(N)nc(N)c1-c1ccc(Cl)cc1` [Pyrimethamine], in the series with T. gondii [3], the “CPM for B” value worked out at 69217 ± 3253 CPM.
Turning to `Nc1ccc(S(=O)(=O)Nc2ncccn2)cc1` [Sulfadiazine], the “growth of T. gondii reduced” value in series [1] was “about 60%”. Also, the “CPM for B” value in the series with T. gondii [3] is 25026 ± 4365 CPM. Further, in the series with T. gondii [4], the “manifestations of infection in vivo” value is on record as “reduced manifestations of infection”.
Take `C[C@@H](Oc1ccc(Oc2ncc(Cl)cc2F)cc1)C(=O)O` [Clodinafop]: in series [1] (10 μM), the “inhibition of growth of T. gondii in human fibroblasts (uracil incorporation)” value is 70%. Besides, the “toxicity for fibroblasts (thymidine incorporation)” value in series [5] is given as “not toxic”. Further, the “inhibition of ACC activity” value in the series with Toxoplasma gondii ACC (20 μM) is 50%; in the series with Toxoplasma gondii ACC (100 μM), 90%. The “parasites in infected fibroblasts” value is reported as “No parasite cells were found” in the series with Toxoplasma tachyzoites (10 μM) and “complete eradication” with Toxoplasma tachyzoites (10 μM, listed as clodinafop). The “number of T. gondii cells in infected fibroblasts” value in the series with Toxoplasma tachyzoites (10 μM) was “substantial reduction”; with Toxoplasma tachyzoites (100 μM), “almost complete removal”.
On to `CC(Oc1ccc(Oc2cnc3cc(Cl)ccc3n2)cc1)C(=O)O` (centres unmarked) [Quizalofop, ()-2-[4-[(6-chloro-2-quinoxalinyl)oxy]phenoxy]propanoic acid], for which the results for the “inhibition of ACC activity” value in the series on Toxoplasma gondii ACC (20 μM) and with Toxoplasma gondii ACC (100 μM) were 50% and 90%, respectively.
For the molecule `O=C(NO)c1ccccc1O` [SHAM, Salicylhydroxamic acid], in series [1] (SHAM 0.16 μg/ml (0.19), 4 day, medium around 54,000 CPM), the “CPM restricted (tritiated uracil incorporation)” value is “around 50%”. For the same molecule, in series [1] (SHAM 0.78 μg/ml, 4 day, medium around 54,000, no RH around 1,000 CPM), the “counts (tritiated uracil incorporation)” value is recorded as “about 8,000 CPM”. Besides, the “approximate 95% C1 count (mean parasite count per field)” value with C. parvum (SHAM 0.1 μg/ml, 0.2% ETOH, media and ethanol ~1200) is around 1200; in the series with C. parvum (SHAM 1 μg/ml, 0.2% ETOH, media and ethanol ~1200), around 1100; in the series with C. parvum (SHAM 10 μg/ml, 0.2% ETOH, media and ethanol ~1200) it was around 1100; with C. parvum (SHAM 100 μg/ml, 0.2% ETOH, media and ethanol ~1200) it was around 400. For the same molecule, the “CPM for B” value in the series on T. gondii [3] worked out at 42993 ± 1098 CPM. Further, the “parasitemia and number of brain cysts” value with T. gondii [4] was “affects parasitemia and number of brain cysts”.
